Test results reported in paper PMC6681301, “Multi-Target β-Protease Inhibitors from Andrographis paniculata: In Silico and In Vitro Studies” (Plants, 2019).

Tests used:
[1] = biological target: Acetylcholinesterase (Human) (Homo sapiens, UniProt P22303); assay: In vitro AChE activity assay (Ellman); type: biochemical
Procedure: (§1) The inhibitory activities of both AChE and BChE were measured using the spectrophotometric method developed by Ellman. Acetylcholinesterase (Human), butyrylcholinesterase (Human) with […] (ACh), and […] (BCh) were used as their substrates, respectively. The enzyme activity was observed using Varioskan Flash (version 4.00.53), and the reading was observed using SkanIt Software (2.4.5 RE for Varioskan Flash). AChE and BChE solutions of ~0.15 unit/μL were prepared. The stock solution of AChE substrate (2.5 μM) and BChE substrate (2.5 μM) solution was prepared with DMSO, respectively.
(§2) The isolated compound inhibitor solutions were prepared using the same method as discussed in the BACE-1 assay. The sodium phosphate buffer (pH 8) (78 μL, 79 μL, 80 μL, 81 μL), 20 μL of the 5, 5′-dithiobis-(2-nitrobenzoic acid) (DTNB), AChE, and BChE enzyme solution (2 μL), substrate solution (20 μL), and inhibitor solutions (0 μL, 1 μL, 2 μL, 3 μL, 4 μL) were added to a 96-well plate. Each concentration was considered in triplicate. The plate was incubated for 15 min at 25 °C, and the readings were taken at 412 nm. The percentage inhibition was calculated using the formula percentage inhibition = (1 − C/I) × 100, where C and I were the enzyme activities without and with the test sample, respectively.

BACE-1 = biological target: T1, BACE-1 (Homo sapiens, UniProt P56817); assay: In vitro BACE-1 activity assay (Sigma BACE-1 FRET assay kit); type: biochemical
T1 construct: purchased Sigma
T1 sequence (P56817 46-501): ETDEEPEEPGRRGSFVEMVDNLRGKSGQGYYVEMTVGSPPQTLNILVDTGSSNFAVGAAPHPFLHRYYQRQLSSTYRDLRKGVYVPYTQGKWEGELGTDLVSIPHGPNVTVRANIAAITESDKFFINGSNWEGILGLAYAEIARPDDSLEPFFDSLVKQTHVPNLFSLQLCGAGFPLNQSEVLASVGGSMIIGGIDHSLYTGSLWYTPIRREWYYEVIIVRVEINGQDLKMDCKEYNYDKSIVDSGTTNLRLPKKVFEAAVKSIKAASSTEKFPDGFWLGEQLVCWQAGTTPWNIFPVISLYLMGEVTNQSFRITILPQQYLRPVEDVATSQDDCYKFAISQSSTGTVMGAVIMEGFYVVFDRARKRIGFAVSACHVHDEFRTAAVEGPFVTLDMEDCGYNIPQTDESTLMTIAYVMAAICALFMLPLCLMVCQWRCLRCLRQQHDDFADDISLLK
Procedure: The assay was performed according to the manufacturer protocol supplied in BACE-1 activity (Sigma, BACE-1FRET assay kit). […] The BACE-1 substrate solution (50 μM), a BACE-1 enzyme solution (2 μL), and inhibitor solutions were prepared as per the manufacturer’s protocol.
BACE-1 substrate solution was prepared with 1 mg/mL (500 μM) by adding 0.5 ml of DMSO to BACE-1 substrate. 7-Methoxycumarin-4-acetyl-Asn670, Lue 671-Amyloid β/A4 Precursor Protein 770 Fragment 667-(2,4 dinitrophenyl), and Lys-Arg-Arg amide […] salt was used as a substrate for BACE-1. A BACE-1 enzyme solution of ~0.3 unit/μL was prepared. […] The isolated compounds were used for the isolated inhibitor solution preparation. The 5281780 solution (20 μM) with 1% DMSO was prepared after heating the solution at 55 °C for 5 min. The 188316 solution (20 μM) was prepared with 1% DMSO. The 5280443 solution was also prepared with concentration of 20 μM in 1% DMSO. These inhibitor solutions with variable concentrations (1 μM, 2 μM, 3 μM, 4 μM) were used for testing BACE-1 activities. The fluorescence assay buffer (78 μL, 79 μL, 80 μL, 81 μL), a BACE-1 enzyme solution (2 μL), the substrate solution (20 μL), and inhibitor solutions (0 μL, 1 μL, 2 μL, 3 μL, 4 μL) were added to a 96-well plate. Each concentration was considered in triplicate. […] The plate was incubated for 120 min at 37 °C, and the readings were taken. The readings were noted as S120. The percent inhibition was calculated using the formula, percent inhibition = [1 − (S120 − S0)/(C120 − C0)] × 100 [139].

[2] = biological target: butyrylcholinesterase (Human) (Homo sapiens, UniProt P06276); assay: In vitro BChE activity assay (Ellman); type: biochemical
Chain of butyrylcholinesterase (Human) (P06276 29-602): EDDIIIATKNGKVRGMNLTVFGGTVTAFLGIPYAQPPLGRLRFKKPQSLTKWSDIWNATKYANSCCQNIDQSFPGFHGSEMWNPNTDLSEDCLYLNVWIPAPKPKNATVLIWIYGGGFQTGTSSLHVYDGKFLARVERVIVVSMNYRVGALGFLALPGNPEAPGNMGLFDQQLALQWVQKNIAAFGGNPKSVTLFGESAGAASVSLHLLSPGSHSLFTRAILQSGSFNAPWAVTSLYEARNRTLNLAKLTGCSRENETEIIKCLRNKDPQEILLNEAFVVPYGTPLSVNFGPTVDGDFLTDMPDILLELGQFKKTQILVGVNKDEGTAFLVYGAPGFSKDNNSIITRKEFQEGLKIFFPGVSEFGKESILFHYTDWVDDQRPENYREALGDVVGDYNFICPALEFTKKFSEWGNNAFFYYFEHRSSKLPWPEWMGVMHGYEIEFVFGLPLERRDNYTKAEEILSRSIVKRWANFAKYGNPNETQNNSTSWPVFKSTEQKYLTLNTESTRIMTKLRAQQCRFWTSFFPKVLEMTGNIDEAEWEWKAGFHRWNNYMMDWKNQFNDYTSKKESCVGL
Procedure: as §1, §2

BChE (equine serum) = test system: BChE (equine serum); set-up: method as in PMID 23529036; settings: cited from earlier work
AChE (electric eel) = test system: AChE (electric eel); set-up: method as in PMID 23529036; settings: cited from earlier work
[3] = biological target: glycogen synthase kinase-3b; settings: read-out: IC50, inhibition of glycogen synthase kinase-3b; cited from earlier work
AChE = test system: AChE; set-up: method as in PMID 29850593; settings: cited from earlier work
BChE = test system: BChE; set-up: method as in PMID 29850593; settings: cited from earlier work

Chain of Acetylcholinesterase (Human) (P22303 32-614): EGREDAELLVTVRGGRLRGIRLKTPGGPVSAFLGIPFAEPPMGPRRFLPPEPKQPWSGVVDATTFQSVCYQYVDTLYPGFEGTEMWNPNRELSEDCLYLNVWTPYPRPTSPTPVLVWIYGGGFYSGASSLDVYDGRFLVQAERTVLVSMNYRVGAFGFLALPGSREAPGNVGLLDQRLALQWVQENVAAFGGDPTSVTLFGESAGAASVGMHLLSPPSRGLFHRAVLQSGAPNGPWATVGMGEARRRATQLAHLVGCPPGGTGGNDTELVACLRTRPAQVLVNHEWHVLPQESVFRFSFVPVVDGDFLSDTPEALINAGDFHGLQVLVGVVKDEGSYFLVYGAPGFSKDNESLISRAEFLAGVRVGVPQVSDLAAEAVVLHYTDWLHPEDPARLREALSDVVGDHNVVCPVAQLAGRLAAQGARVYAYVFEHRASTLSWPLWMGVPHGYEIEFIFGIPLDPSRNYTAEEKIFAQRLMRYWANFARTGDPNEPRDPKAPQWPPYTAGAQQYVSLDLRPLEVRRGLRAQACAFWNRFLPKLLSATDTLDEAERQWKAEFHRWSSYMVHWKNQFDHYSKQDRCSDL

Row | Compound | IC50 [1] [µM] | IC50 (BACE-1) [µM] | IC50 [2] [µM] | also measured
1 | COc1cc(O)c2c(=O)cc(-c3ccccc3)oc2c1OC [Compound 188316, 7-o-methylwogonin] | 2.46 ± 0.03 | 2.91 ± 0.04 | 1.46 ± 0.02 | potency relative to eserine ([1]; comparison of IC50 values (Table 4)): ~1.5 fold
3 | O=C(C=Cc1ccc(O)c(O)c1)OC1CC(O)(C(=O)O)CC(O)C1OC(=O)C=Cc1ccc(O)c(O)c1 (centres unmarked) [Compound 5281780, 3,4-di-o-caffeoylquinic acid] | 2.14 ± 0.04 | 3.31 ± 0.12 | – | –
4 | O=c1cc(-c2ccc(O)cc2)oc2cc(O)cc(O)c12 [Compound 5280443, apigenin] | 3.42 ± 0.02 | 3.79 ± 0.26 | 1.97 ± 0.01 | IC50 [3]: 1.9 µM
5 | COc1cc2c(cc1O)C[C@H]1c3c(cc(O)c(OC)c3-2)CCN1C [Boldine] | – | – | – | IC50 (AChE): 372 µM; IC50 (BChE): 321 µM
